Experiment [1] has as its target T1, CDK2/Cyclin E1 (Homo sapiens, UniProt P24941).
T1 construct: purchased 14-475
As to the kind of experiment: Caliper Assay (LabChip EZ Reader mobility shift assay), inhibition of CDK2/Cyclin E1 activity. As to conditions: 2.5 nM CDK2/Cyclin E1(14-475), 100 μM ATP, 30 min preincubation; read-out: Caliper Assay (CDK2/CCNE1): IC50. It counts as biochemical. The gist of the method:
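Compounds were preincubated 30 min with CDK2/Cyclin E1(14-475), then run for 100 min with 2.5 nM enzyme, 100 μM ATP and 1.5 μM 5-FAM-QSPKKG peptide in HEPES pH 7.5 (final). Reactions were EDTA-stopped and substrate-to-product conversion read by mobility shift. IC50 came from a four-parameter fit.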

Experiment [2] deals with Kuramochi cells. As to the kind of experiment: IncuCyte Kuramochi Assay (cell proliferation). It is filed as cell-based. As to conditions: 72 h, Kuramochi cells labeled with mApple-H2B, cell count, read-out: IncuCyte - Kuramochi RB-WT: IC50. Summed up: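 GI50 came from dose-response fits of cell-count fold change between 0 and 72 h, normalized to DMSO controls. Counts were fluorescent nuclei from live-cell images over a 10-point, ½ log series starting at 20 μM.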

In the case of `CC1(C)C[C@@H]1C(=O)N1CC2(CN(C(=O)c3ccnnc3)CC2c2nnc(C(F)(F)c3ccc(Cl)c(Cl)c3)o2)C1` (stereo partly drawn) [I-43, (8-(5-((3,4-dichlorophenyl)difluoromethyl)-1,3,4-oxadiazol-2-yl)-2-((S)-2,2-dimethylcyclopropane-1-carbonyl)-2,6-diazaspiro[3.4]octan-6-yl)(pyridazin-4-yl)methanone], the IC50 in experiment [1] was 1 to 10 µM; in experiment [2] it was > 10 µM.

As for `CC1(C)C[C@@H]1C(=O)N1CC2(CN(C(=O)c3cncs3)CC2c2cn(Cc3ccc(C4(C(F)(F)F)CC4)cc3)nn2)C1` (stereo partly shown) [I-194], the values for the IC50 in experiment [1] and in experiment [2] were 0.1 to 1 µM and > 10 µM, respectively.

For `Cc1ccc(Cc2nnc(C3CN(C(=O)c4cnn(Cc5ccccc5)c4)CC34CN(C(=O)[C@H]3CC3(C)C)C4)o2)nn1` (stereo partly shown) [I-22], the IC50 was 1 to 10 µM in experiment [1] and > 10 µM in experiment [2].

For the compound `CC1(C)C[C@@H]1C(=O)N1CC2(CN(C(=O)c3cnn(Cc4ccccc4)c3)CC2c2ncc(Cc3ccc(Cl)cc3)o2)C1` (stereo partly drawn) [I-8, (1-benzyl-1H-pyrazol-4-yl)(8-(5-(4-chlorobenzyl)oxazol-2-yl)-2-((S)-2,2-dimethylcyclopropane-1-carbonyl)-2,6-diazaspiro[3.4]octan-6-yl)methanone], the IC50 was 0.1 to 1 µM in experiment [1] and 5 to 10 µM in experiment [2].

Take `CC(=O)N1CC2(C1)CN(C(=O)c1cncs1)CC2c1nnc(C(F)(F)c2ccc(Cl)c(Cl)c2)o1` (stereo not shown) [I-196]: the IC50 in experiment [1] and in experiment [2] was > 10 µM each time.

With `CC1(C)C[C@@H]1C(=O)N1CC2(CN(C(=O)c3cnn(Cc4ccccc4)c3)CC2c2ccc(NCc3ccccc3)cc2)C1` (stereo partly drawn) [I-93, (1-benzyl-1H-pyrazol-4-yl)(8-(4-(benzylamino)phenyl)-2-((S)-2,2-dimethylcyclopropane-1-carbonyl)-2,6-diazaspiro[3.4]octan-6-yl)methanone], the IC50 in experiment [1] lay in the range of 1 to 10 µM; in experiment [2], 5 to 10 µM.

`O=C(c1cncs1)N1CC(c2nnc(Cc3ccc(Cl)c(Cl)c3)o2)C2(C1)CN(c1ncc(C(F)(F)F)cn1)C2` (stereo not shown) [I-47]: the IC50 in experiment [1] and in experiment [2] was > 10 µM in each case.

For the compound `O=C(c1cncs1)N1CC(c2nnc(C(F)(F)c3ccc(Cl)c(Cl)c3)o2)C2(C1)CN(C(=O)[C@@H]1CCCN1)C2` (stereo partly shown) [I-169 2nd], the IC50 in experiment [1] and in experiment [2] was > 10 µM in each case.

On to `O=C(c1[nH]ncc1F)N1CC(c2nnc(C(F)(F)c3ccc(Cl)c(Cl)c3)o2)C2(C1)CN(C(=O)[C@H]1CC1(F)F)C2` (stereo partly shown) [I-162], for which the IC50 in experiment [1] and in experiment [2] was > 10 µM each time.

With `CC(=O)N1CC(c2nnc(C(F)(F)c3ccc(Cl)c(Cl)c3)o2)C2(C1)CN(C(=O)[C@H]1CC1(C)C)C2` (stereo partly shown) [I-200], the IC50 in experiment [1] and in experiment [2] was > 10 µM throughout.

As to `O=C(c1cnccn1)N1CC(c2nnc(C(F)(F)c3ccc(Cl)c(Cl)c3)o2)C2(C1)CN(C(=O)[C@H]1CC1(F)F)C2` (stereo partly drawn) [I-176, (8-(5-((3,4-dichlorophenyl)difluoromethyl)-1,3,4-oxadiazol-2-yl)-2-((R)-2,2-difluorocyclopropane-1-carbonyl)-2,6-diazaspiro[3.4]octan-6-yl)(pyrazin-2-yl)methanone], the IC50 is 1 to 10 µM in experiment [1] and > 10 µM in experiment [2].

Take `CC1(C)C[C@@H]1C(=O)N1CC2(CN(C(=O)c3cnn(Cc4ccccc4)c3)CC2c2nc(C(=O)NCC3CCCCC3)co2)C1` (stereo partly shown) [I-92]: the IC50 in experiment [1] lay in the range of 0.01 to 0.1 µM; in experiment [2], 5 to 10 µM.

Consider `Cc1nc(C)c(C(=O)N2CC(c3nnc(Cc4cccc(C5CCOCC5)n4)o3)C3(C2)CN(C(=O)[C@H]2CC2(C)C)C3)s1` (stereo partly drawn) [I-66, (2-((S)-2,2-dimethylcyclopropane-1-carbonyl)-8-(5-((6-(tetrahydro-2H-pyran-4-yl)pyridin-2-yl)methyl)-1,3,4-oxadiazol-2-yl)-2,6-diazaspiro[3.4]octan-6-yl)(2,4-dimethylthiazol-5-yl)methanone], for which the IC50 in experiment [1] is 0.1 to 1 µM; in experiment [2], > 10 µM.

As for `CC1(C)C[C@@H]1C(=O)N1CC2(CN(C(=O)c3cncs3)CC2c2nnc(Cc3cc[nH]n3)o2)C1` (stereo partly drawn) [I-29, (8-(5-((1H-pyrazol-3-yl)methyl)-1,3,4-oxadiazol-2-yl)-2-((S)-2,2-dimethylcyclopropane-1-carbonyl)-2,6-diazaspiro[3.4]octan-6-yl)(thiazol-5-yl)methanone], the IC50 in experiment [1] and in experiment [2] was > 10 µM throughout.

Regarding `CC(=O)N1CC(c2nnc(C(F)(F)c3ccc(Cl)c(Cl)c3)o2)C2(C1)CN(C(C)=O)C2` (stereo not shown) [I-204], the IC50 in experiment [1] and in experiment [2] was > 10 µM throughout.

In the case of `CC(C)=CC(=O)N1CC2(C1)CN(C(=O)c1cncs1)CC2c1nnc(C(F)(F)c2ccc(Cl)c(Cl)c2)o1` (stereo not shown) [I-190], the IC50 in experiment [1] and in experiment [2] was > 10 µM throughout.

In the case of `Cc1cc(O)nn1C(C)c1nc(C2CN(C(=O)c3cncs3)CC23CN(C(=O)[C@H]2CC2(C)C)C3)no1` (stereo partly shown) [I-63], the IC50 in experiment [1] is 1 to 10 µM; in experiment [2], > 10 µM.

Take `CC1(C)OC1C(=O)N1CC2(CN(C(=O)c3cncs3)CC2c2nnc(C(F)(F)c3ccc(Cl)c(Cl)c3)o2)C1` (stereo not shown) [I-179, (8-(5-((3,4-dichlorophenyl)difluoromethyl)-1,3,4-oxadiazol-2-yl)-2-(3,3-dimethyloxirane-2-carbonyl)-2,6-diazaspiro[3.4]octan-6-yl)(thiazol-5-yl)methanone]: the IC50 in experiment [1] was > 10 µM; in experiment [2], 5 to 10 µM.

Regarding `Cc1cc(C)n(Cc2nnc(C3CN(C(=O)c4cnn(Cc5ccccc5)c4)CC34CN(C(=O)[C@H]3CC3(C)C)C4)o2)n1` (stereo partly shown) [I-13], the results for the IC50 in experiment [1] and in experiment [2] were 1 to 10 µM and > 10 µM, respectively.

Turning to `CC(C)(C(=O)N1CC2(C1)CN(c1ncnc3ncsc13)CC2c1nnc(C(F)(F)c2ccc(Cl)c(Cl)c2)o1)C(F)F` (stereo not shown) [I-170, 1-(8-(5-((3,4-dichlorophenyl)difluoromethyl)-1,3,4-oxadiazol-2-yl)-6-(thiazolo[4,5-d]pyrimidin-7-yl)-2,6-diazaspiro[3.4]octan-2-yl)-3,3-difluoro-2,2-dimethylpropan-1-one], the IC50 in experiment [1] and in experiment [2] was > 10 µM each time.

As to `O=C(c1cncs1)N1CC(c2nnc(C(F)(F)c3ccc(Cl)c(Cl)c3)o2)C2(C1)CN(C(=O)[C@@H]1CCCO1)C2` (stereo partly shown) [I-164], the IC50 in experiment [1] and in experiment [2] was > 10 µM in each case.

On to `FC(F)(c1ccc(Cl)c(Cl)c1)c1nnc(C2CN(c3ncnc4ncsc34)CC23CN(c2ncccn2)C3)o1` (stereo not shown) [I-183, 2-((3,4-dichlorophenyl)difluoromethyl)-5-(2-(pyrimidin-2-yl)-6-(thiazolo[4,5-d]pyrimidin-7-yl)-2,6-diazaspiro[3.4]octan-8-yl)-1,3,4-oxadiazole], for which the IC50 in experiment [1] and in experiment [2] was > 10 µM throughout.

As to `Cc1cc(C)n(C(C)c2nc(C3CN(C(=O)c4cncs4)CC34CN(C(=O)[C@H]3CC3(C)C)C4)no2)n1` (stereo partly drawn) [I-9, (8-(5-(1-(3,5-dimethyl-1H-pyrazol-1-yl)ethyl)-1,2,4-oxadiazol-3-yl)-2-((S)-2,2-dimethylcyclopropane-1-carbonyl)-2,6-diazaspiro[3.4]octan-6-yl)(thiazol-5-yl)methanone], the IC50 was 1 to 10 µM in experiment [1] and > 10 µM in experiment [2].

As to `CC(C)(C#N)C(=O)N1CC2(CN(Cc3cncs3)CC2c2nnc(C(F)(F)c3ccc(Cl)c(Cl)c3)o2)C1` (stereo not shown) [I-159, 3-(8-(5-((3,4-dichlorophenyl)difluoromethyl)-1,3,4-oxadiazol-2-yl)-6-(thiazol-5-ylmethyl)-2,6-diazaspiro[3.4]octan-2-yl)-2,2-dimethyl-3-oxopropanenitrile], the IC50 in experiment [1] and in experiment [2] was > 10 µM each time.

Consider `CC1(C)C[C@@H]1C(=O)N1CC2(CN(C(=O)c3cncs3)CC2c2nnc(Cc3cccc(C4CCCCO4)n3)o2)C1` (stereo partly shown) [I-83], for which the figures for the IC50 in experiment [1] and in experiment [2] were 0.1 to 1 µM and > 10 µM, respectively.

Take `CC1(C)C[C@@H]1C(=O)N1CC2(CN(C(=O)c3cncs3)CC2c2cn(Cc3ccc(Cl)c(Cl)c3)nn2)C1` (stereo partly drawn) [I-51, (8-(1-(3,4-dichlorobenzyl)-1H-1,2,3-triazol-4-yl)-2-((S)-2,2-dimethylcyclopropane-1-carbonyl)-2,6-diazaspiro[3.4]octan-6-yl)(thiazol-5-yl)methanone]: the IC50 in experiment [1] and in experiment [2] was > 10 µM in each case.

In the case of `CC(C)(C(=O)N1CC2(CN(C(=O)c3cncs3)CC2c2nnc(C(F)(F)c3ccc(Cl)c(Cl)c3)o2)C1)C(F)(F)F` (stereo not shown) [I-57], the IC50 was 0.1 to 1 µM in experiment [1] and > 10 µM in experiment [2].

Take `CC1(C)C[C@@H]1C(=O)N1CC2(CN(C(=O)c3cncnc3)CC2c2nnc(C(F)(F)c3ccc(Cl)c(Cl)c3)o2)C1` (stereo partly shown) [I-56]: the IC50 is 1 to 10 µM in experiment [1] and > 10 µM in experiment [2].

For the compound `CC1(C)C[C@@H]1C(=O)N1CC2(CN(C(=O)c3cncs3)CC2c2nnc(Cc3cccc4c3OCCO4)o2)C1` (stereo partly shown) [I-33], the IC50 in experiment [1] was 1 to 10 µM; in experiment [2], > 10 µM.

As to `O=C(c1cncs1)N1CC(c2nnc(C(F)(F)c3ccc(Cl)c(Cl)c3)o2)C2(C1)CN(c1ccccn1)C2` (stereo not shown) [I-184], the IC50 in experiment [1] and in experiment [2] was > 10 µM in each case.

Take `CC(c1nc(C2CN(C(=O)c3cncs3)CC23CN(C(=O)[C@H]2CC2(C)C)C3)no1)n1ccc(C2CCCC2)n1` (single isomer, unassigned) [I-36 1st]: the IC50 in experiment [1] is 0.01 to 0.1 µM; in experiment [2], > 10 µM.

For the compound `CC1(C)C[C@@H]1C(=O)N1CC2(CN(C(=O)c3cncs3)CC2c2nnc(C(F)(F)c3ccc(Br)cc3)o2)C1` (stereo partly shown) [I-69], the IC50 in experiment [1] was 0.1 to 1 µM; in experiment [2], > 10 µM.

The record behind these values is patent US20260151375A1, “CDK2 INHIBITORS AND METHODS OF USING THE SAME” (Cedilla Therapeutics, Inc., priority 2022, published 2026).
